Values of other authors as cited in patent US20070203078A1, “METHOD FOR THE TREATMENT AND DIAGNOSIS OF CERTAIN PSYCHIATRIC DISORDERS RELATED TO THE MENSTRUAL CYCLE” (THE REGENTS OF THE UNIVERSITY OF CALIFORNIA, priority 2004, published 2007).

Biological target: T1, δ subunit-containing GABAARs (Mus musculus, UniProt P22933)
T1 construct: tonic conductance mediated by δ subunit-containing GABAARs in several classes of neurons; host or cells: neurons (cerebellar granule cells, dentate gyrus granule cells and interneurons are named)
T1 sequence (P22933 25-449): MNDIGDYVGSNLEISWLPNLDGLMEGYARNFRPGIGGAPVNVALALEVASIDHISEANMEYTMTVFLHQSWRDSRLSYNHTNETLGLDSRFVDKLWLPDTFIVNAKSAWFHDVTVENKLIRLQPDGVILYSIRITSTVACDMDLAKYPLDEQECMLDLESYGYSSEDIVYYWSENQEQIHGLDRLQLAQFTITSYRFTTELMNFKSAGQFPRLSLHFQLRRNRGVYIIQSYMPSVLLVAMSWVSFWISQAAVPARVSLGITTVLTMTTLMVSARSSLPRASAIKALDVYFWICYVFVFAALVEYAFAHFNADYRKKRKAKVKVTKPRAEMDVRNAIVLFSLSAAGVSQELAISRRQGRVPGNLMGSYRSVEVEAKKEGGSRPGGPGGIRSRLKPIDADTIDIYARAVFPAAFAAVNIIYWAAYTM
Details: THDOC in the physiological range (10 nM)

C[C@]12CC[C@@H](O)C[C@H]1CC[C@@H]1[C@@H]2CC[C@]2(C)[C@@H](C(=O)CO)CC[C@@H]12 [THDOC]
effect on synaptic currents: no effect
effect on tonic conductance mediated by δ subunit-containing GABAARs (several classes of neurons): significantly potentiate
